Read-outs that look alike come from different tables or passages of the source. Marks after values point to notes of the source that are not given here.
Tests used:
[1] = system: parental CHO cell line without any transfected receptors; assay: ERK1/2‐phosphorylation, parent CHO cells without transfected receptors; assay type: cell-based, Chinese hamster; conditions: for EC50 / Emax: Cricetulus griseus; for EC50: read-out: ERK1/2-phosphorylation Log EC50 (converted); for Emax: read-out: ERK1/2-phosphorylation % PDBu; for ERK1/2‐phosphorylation response in parent CHO cells: untransfected cells
human α1B‐adrenoceptor [2] = molecular target: T1, human α1B‐adrenoceptor (Homo sapiens, UniProt P35368); assay: ^3H‐prazosin whole‐cell radioligand binding, CHO‐α1B cells; conditions: CHO‐α1B cells
T1 construct: expressed in transfected cells; host or cells: CHO-K1
T1 sequence (P35368 1-520): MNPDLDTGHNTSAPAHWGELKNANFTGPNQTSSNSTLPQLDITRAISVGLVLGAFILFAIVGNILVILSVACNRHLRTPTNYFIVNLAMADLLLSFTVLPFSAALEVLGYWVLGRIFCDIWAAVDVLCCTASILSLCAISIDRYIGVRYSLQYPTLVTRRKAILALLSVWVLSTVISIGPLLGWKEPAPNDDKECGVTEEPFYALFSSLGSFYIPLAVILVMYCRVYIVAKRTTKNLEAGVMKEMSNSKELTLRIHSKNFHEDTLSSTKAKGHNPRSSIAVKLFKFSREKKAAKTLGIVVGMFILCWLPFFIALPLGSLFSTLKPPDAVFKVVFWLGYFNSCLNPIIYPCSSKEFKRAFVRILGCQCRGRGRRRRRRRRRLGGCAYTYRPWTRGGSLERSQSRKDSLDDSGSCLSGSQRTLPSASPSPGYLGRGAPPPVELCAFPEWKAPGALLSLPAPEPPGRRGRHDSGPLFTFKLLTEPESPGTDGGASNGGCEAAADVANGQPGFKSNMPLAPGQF

[3] = molecular target: T2, human α1D‐adrenoceptor (full length) (Homo sapiens, UniProt P25100); assay: ^3H‐prazosin whole‐cell radioligand binding, CHO‐α1D cells; conditions: CHO‐α1D cells
T2 construct: human α1D‐adrenoceptor (full length) were used; expressed in transfected cells; host or cells: CHO-K1
T2 sequence (P25100 1-572): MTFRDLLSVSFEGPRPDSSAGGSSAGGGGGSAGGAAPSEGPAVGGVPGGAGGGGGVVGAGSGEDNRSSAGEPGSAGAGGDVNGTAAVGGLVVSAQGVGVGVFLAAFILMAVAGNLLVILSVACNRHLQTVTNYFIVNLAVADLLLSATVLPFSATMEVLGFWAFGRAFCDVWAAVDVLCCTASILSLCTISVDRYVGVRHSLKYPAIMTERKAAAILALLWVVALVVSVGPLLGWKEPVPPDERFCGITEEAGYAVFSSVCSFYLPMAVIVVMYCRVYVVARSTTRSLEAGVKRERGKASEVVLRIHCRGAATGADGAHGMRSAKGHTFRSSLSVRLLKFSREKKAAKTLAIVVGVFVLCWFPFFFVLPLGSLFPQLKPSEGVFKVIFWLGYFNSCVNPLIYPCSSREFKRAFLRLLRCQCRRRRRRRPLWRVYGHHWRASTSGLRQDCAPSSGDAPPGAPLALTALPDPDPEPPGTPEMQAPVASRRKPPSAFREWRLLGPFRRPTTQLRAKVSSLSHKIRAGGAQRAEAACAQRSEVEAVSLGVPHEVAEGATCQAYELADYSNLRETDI

human α1B‐adrenoceptor [4] = molecular target: T1, human α1B‐adrenoceptor; assay: Intracellular free calcium mobilization, CHO‐α1B cells; assay type: cell-based
human α1A‐adrenoceptor [5] = molecular target: T3, human α1A‐adrenoceptor (Homo sapiens, UniProt P35348); assay: ERK1/2‐phosphorylation (Surefire Alphascreen), CHO‐α1A cells; assay type: cell-based
T3 construct: expressed in transfected cells; host or cells: CHO-K1
T3 sequence (P35348 1-466): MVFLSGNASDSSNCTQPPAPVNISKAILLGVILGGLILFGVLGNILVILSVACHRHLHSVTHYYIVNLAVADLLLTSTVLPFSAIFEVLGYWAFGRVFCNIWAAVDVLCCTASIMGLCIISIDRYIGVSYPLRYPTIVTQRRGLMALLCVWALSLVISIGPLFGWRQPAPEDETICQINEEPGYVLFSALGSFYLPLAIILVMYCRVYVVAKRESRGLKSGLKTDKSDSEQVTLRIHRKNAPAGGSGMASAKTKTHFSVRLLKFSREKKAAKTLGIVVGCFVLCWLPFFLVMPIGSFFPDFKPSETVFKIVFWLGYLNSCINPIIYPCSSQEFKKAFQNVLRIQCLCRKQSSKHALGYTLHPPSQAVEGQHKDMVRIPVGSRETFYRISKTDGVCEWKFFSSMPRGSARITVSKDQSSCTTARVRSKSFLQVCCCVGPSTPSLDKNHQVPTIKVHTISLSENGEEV

[6] = molecular target: T2, human α1D‐adrenoceptor (full length); assay: Intracellular free calcium mobilization, CHO‐α1D cells; assay type: cell-based
human α1A‐adrenoceptor [7] = molecular target: T3, human α1A‐adrenoceptor; assay: Intracellular free calcium mobilization, CHO‐α1A cells; assay type: cell-based
human α1B‐adrenoceptor [8] = molecular target: T1, human α1B‐adrenoceptor; assay: ^3H‐cAMP accumulation in the presence of 10 μM forskolin, CHO‐α1B cells; assay type: cell-based; conditions: CHO‐α1B cells; in presence of forskolin; read-out: cAMP accumulation (in presence of forskolin) Log EC50 (converted)
human α1A‐adrenoceptor [9] = molecular target: T3, human α1A‐adrenoceptor; assay: ^3H‐cAMP accumulation, CHO‐α1A cells; assay type: cell-based; conditions: CHO‐α1A cells; % of 10 µM forskolin response
human α1B‐adrenoceptor [10] = molecular target: T1, human α1B‐adrenoceptor; assay: ^3H‐cAMP accumulation, CHO‐α1B cells; assay type: cell-based; conditions: CHO‐α1B cells; for cAMP accumulation % forskolin: % forskolin maximum response
[11] = system: parental CHO cell line without any transfected receptors; assay: Forskolin‐stimulated cAMP accumulation, parent CHO cells without transfected receptors; assay type: cell-based, Chinese hamster
[12] = molecular target: T2, human α1D‐adrenoceptor (full length); assay: ERK1/2‐phosphorylation (Surefire Alphascreen), CHO‐α1D cells; assay type: cell-based
[13] = system: parental CHO cell line without any transfected receptors; assay: Intracellular calcium mobilization, parent CHO cells without transfected receptors; assay type: cell-based, Chinese hamster; conditions: Cricetulus griseus; CHO cells without transfected receptors; response at maximum concentration used (c2), as % of ionomycin (10μM) response; mean ± s.e.m.; read-out: Intracellular calcium release % ionomycin
human α1B‐adrenoceptor [14] = molecular target: T1, human α1B‐adrenoceptor; assay: ERK1/2‐phosphorylation (Surefire Alphascreen), CHO‐α1B cells; assay type: cell-based
[15] = molecular target: T2, human α1D‐adrenoceptor (full length); assay: ^3H‐cAMP accumulation in the presence of 10 μM forskolin, CHO‐α1D cells; assay type: cell-based; conditions: for Effect on cAMP accumulation in the presence of forskolin, CHO‐α1D cells: not α1‐mediated
[16] = CHO cells without transfected receptors, maximal response as % of PDBu (10μM) response, mean ± s.e.m.

## Clc1cccc(Cl)c1N=C1NCCN1 [Clonidine]
[1]; [16]
  ERK1/2-phosphorylation % PDBu: No response
Human α1B‐adrenoceptor [2]; Log KD α1B, ^3H‐prazosin whole cell binding, given as log KD (negative), mean ± SEM
  Kd: 7410 nM
Human α1B‐adrenoceptor [2]; Log KD, ^3H‐prazosin binding, whole‐cell binding (from Table 1), given as log KD (negative numbers)
  Kd: 7410 nM
[3]; 3H‐prazosin binding Log KD, whole‐cell binding (from Table 1), log values given negative
  Kd: 2570 nM
[3]; Log KD α1D, ^3H‐prazosin whole cell binding, given as log KD (negative), mean ± SEM, 'early plateau' = specific binding not fully inhibited
  Kd: 2570 nM
Human α1B‐adrenoceptor [4]
  Intracellular calcium release % ionomycin: 45.4 ± 2.1%
Human α1B‐adrenoceptor [4]; Intracellular calcium release Log EC50, CHO‐α1B cells, given as log EC50 (negative numbers)
  EC50: 17 nM
Human α1A‐adrenoceptor [5]
  ERK1/2‐phosphorylation % PDBu: 85.7 ± 4.7%
[6]
  Intracellular calcium release % Ionomycin at 100 µM: 8.0 ± 0.5%
Human α1A‐adrenoceptor [7]
  Intracellular calcium release % ionomycin: 51.6 ± 1.2%
Human α1B‐adrenoceptor [8]
  EC50: 44.7 nM
Human α1A‐adrenoceptor [9]
  cAMP accumulation % forskolin: 33.8 ± 3.2%
Human α1B‐adrenoceptor [10]
  cAMP accumulation % forskolin: 7.5 ± 0.8%
Human α1B‐adrenoceptor [10]; read-out: cAMP accumulation Log EC50 (converted)
  EC50: 251 nM
[11]; CHO cells without transfected receptors, in presence of forskolin
  cAMP accumulation (in presence of forskolin) Log EC50: No response
[12]
  ERK1/2‐phosphorylation % PDBu at 100 µM: 6.1 ± 1.3%
[13]
  Emax: 1.6 ± 1%
Human α1B‐adrenoceptor [14]
  ERK1/2‐phosphorylation % PDBu: 60.6 ± 7.6%
Human α1B‐adrenoceptor [14]; ERK1/2‐phosphorylation Log EC50, CHO‐α1B cells, for bi‐phasic responses the initial stimulatory part
  EC50: 89.1 nM

## CC(CCc1ccccc1)NCC(O)c1ccc(O)c(C(N)=O)c1 (centres unmarked) [Labetolol]
[1]; CHO
  EC50: 2400 nM
[1]; [16]
  Emax: 25.9 ± 3.4%
[1]
  ERK1/2‐phosphorylation response in parent CHO cells: stimulated ERK1/2‐phosphorylation responses
Human α1B‐adrenoceptor [4]
  Intracellular calcium release % Ionomycin at 100 µM: 2.5 ± 1.2%
Human α1A‐adrenoceptor [5]
  ERK1/2‐phosphorylation % PDBu: 71.3 ± 5.2%
[6]
  Intracellular calcium release % Ionomycin at 100 µM: 8.1 ± 1.6%
Human α1A‐adrenoceptor [7]
  Intracellular calcium release % ionomycin: 36.9 ± 3.7%
Human α1A‐adrenoceptor [9]
  cAMP accumulation % forskolin: 4.5 ± 0.6%
Human α1B‐adrenoceptor [10]
  cAMP accumulation % forskolin: No response
[11]
  cAMP accumulation (in presence of forskolin) Log EC50: No response
[12]
  ERK1/2‐phosphorylation % PDBu at 100 µM: 36.5 ± 5.2 ^a %
[13]
  Emax: 10.3 ± 3.1%
Human α1B‐adrenoceptor [14]
  ERK1/2‐phosphorylation % PDBu: 22.9 ± 6.3%

## Cc1cc(C(C)(C)C)c(O)c(C)c1CC1=NCCN1 [Oxymethazoline]
[1]; [16]
  Emax: 46.7 ± 6%
[1]; CHO cells without transfected receptors, mean ± s.e.m.
  EC50: 11 nM
[1]
  ERK1/2‐phosphorylation response in parent CHO cells: stimulated ERK1/2‐phosphorylation responses
Human α1A‐adrenoceptor [5]; CHO‐α1A cells, % of 10 µM PDBu, ^a bi‐phasic: initial stimulatory part
  ERK1/2‐phosphorylation % PDBu: 92.8 ± 2.7%
[6]; CHO‐α1D cells, maximal response as % of 10 µM ionomycin
  Intracellular calcium release % ionomycin: 7.6 ± 1.0%
Human α1A‐adrenoceptor [7]; CHO‐α1A cells, maximal response as % of 10 µM ionomycin
  Intracellular calcium release % ionomycin: 54.5 ± 2.5%
Human α1A‐adrenoceptor [9]
  cAMP accumulation % forskolin: 43.9 ± 5.2%
[11]; CHO cells without transfected receptors, footnote *: % inhibition
  % inhibition of forskolin-stimulated cAMP: 18.1 ± 2.2%
[11]; Cricetulus griseus, CHO cells without transfected receptors, footnote *: log IC50, read-out: log IC50, decrease in forskolin-stimulated cAMP accumulation (converted)
  IC50: 19.5 nM
[11]; untransfected cells
  Effect on cAMP accumulation in the presence of forskolin, parent cells: decrease in cAMP accumulation
[15]; CHO‐α1D cells, decrease in forskolin‐stimulated cAMP accumulation (footnote b)
  % inhibition of forskolin‐stimulated cAMP: *28.7 ± 2.9%
[15]; listed as Oxymetazoline
  Effect on cAMP accumulation in the presence of forskolin, CHO‐α1D cells: decrease in cAMP accumulation
[15]; listed as oxymetazoline
  Effect on cAMP accumulation in the presence of forskolin, CHO‐α1D cells: inhibitory cAMP response
[12]; CHO‐α1D cells, maximal response as % of PDBu
  ERK1/2‐phosphorylation % PDBu: 48.6 ± 5.4%
[13]
  Emax: 3.1 ± 0.9%
